Source: US10758534B2 (Vertex Pharmaceuticals Incorporated, priority 2014, dated 2020)

Target: T1, F508del (Homo sapiens, UniProt P13569, DEL508-508)
T1 construct: expressed in transfected cells
Experiment: Protocol 1: membrane potential optical assay (FLIPR III, voltage sensing dye), identification of potentiator compounds
Format: cell-based
Conditions: Table 3, compounds of Table 1
Summary of the method: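 Membrane potential in forskolin-activated, temperature-rescued F508del NIH 3T3 cells is followed with a voltage-sensing dye on FLIPR III. A chloride ion gradient created at the single addition step provides the driving force, after prior compound treatment.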

T1 sequence (P13569 with tags, fused parts or gaps DEL508-508): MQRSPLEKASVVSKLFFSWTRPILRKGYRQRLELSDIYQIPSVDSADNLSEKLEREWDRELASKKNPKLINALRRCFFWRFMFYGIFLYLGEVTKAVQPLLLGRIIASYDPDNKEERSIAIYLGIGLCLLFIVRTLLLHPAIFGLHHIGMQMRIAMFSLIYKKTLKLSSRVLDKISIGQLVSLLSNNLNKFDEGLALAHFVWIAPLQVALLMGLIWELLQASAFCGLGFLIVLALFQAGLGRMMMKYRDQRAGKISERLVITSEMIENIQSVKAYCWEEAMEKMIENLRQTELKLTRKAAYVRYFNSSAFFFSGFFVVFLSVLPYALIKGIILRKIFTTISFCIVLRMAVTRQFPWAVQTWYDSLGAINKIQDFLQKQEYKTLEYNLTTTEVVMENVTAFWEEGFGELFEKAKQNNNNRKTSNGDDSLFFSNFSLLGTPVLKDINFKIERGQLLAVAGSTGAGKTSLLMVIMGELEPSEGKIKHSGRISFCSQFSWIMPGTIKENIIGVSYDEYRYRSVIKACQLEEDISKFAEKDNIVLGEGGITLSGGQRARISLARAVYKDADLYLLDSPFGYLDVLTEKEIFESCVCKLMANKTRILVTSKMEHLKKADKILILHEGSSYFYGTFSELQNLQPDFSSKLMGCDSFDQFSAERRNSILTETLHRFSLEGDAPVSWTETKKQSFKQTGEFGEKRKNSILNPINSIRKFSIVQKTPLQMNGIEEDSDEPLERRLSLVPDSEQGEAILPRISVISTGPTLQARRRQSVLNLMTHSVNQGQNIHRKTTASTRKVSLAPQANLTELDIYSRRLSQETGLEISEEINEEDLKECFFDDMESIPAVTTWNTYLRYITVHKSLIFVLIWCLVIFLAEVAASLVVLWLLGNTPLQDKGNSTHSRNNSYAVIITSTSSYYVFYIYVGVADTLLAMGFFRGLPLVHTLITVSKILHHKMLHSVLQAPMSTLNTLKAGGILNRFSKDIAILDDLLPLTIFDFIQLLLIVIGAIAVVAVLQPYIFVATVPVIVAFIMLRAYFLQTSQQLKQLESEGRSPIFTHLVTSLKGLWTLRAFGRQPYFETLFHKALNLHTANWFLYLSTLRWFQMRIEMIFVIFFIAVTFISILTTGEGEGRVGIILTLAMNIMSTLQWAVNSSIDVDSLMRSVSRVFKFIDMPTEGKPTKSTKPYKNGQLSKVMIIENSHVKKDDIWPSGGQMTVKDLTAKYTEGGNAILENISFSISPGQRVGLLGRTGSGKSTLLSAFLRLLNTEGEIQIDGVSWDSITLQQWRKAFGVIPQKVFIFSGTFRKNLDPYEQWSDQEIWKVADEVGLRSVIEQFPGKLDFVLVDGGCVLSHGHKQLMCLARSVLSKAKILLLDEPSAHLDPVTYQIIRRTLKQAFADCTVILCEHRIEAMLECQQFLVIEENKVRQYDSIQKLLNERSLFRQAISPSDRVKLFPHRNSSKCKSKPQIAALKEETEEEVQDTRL

## CC(C)Oc1ccc(-c2ccc(C(=O)NS(=O)(=O)c3cccc(N)n3)c(N3CCCC3Cc3ccccc3)n2)cn1 (centres unmarked) [Compound 994, N-[(6-amino-2-pyridyl)sulfonyl]-2-(2-benzylpyrrolidin-1-yl)-6-(6-isopropoxy-3-pyridyl)pyridine-3-carboxamide]
  EC30: +++ (“+++” means <3 uM)

## Cc1cc(C(=O)NS(=O)(=O)c2cccc(N)n2)c(N2CC(C)CC2(C)C)nc1-c1ccc(OC(C)C)nc1 (centres unmarked) [Compound 995, N-[(6-amino-2-pyridyl)sulfonyl]-6-(6-isopropoxy-3-pyridyl)-5-methyl-2-(2,2,4-trimethylpyrrolidin-1-yl)pyridine-3-carboxamide]
  EC30: +++ (“+++” means <3 uM)

## CCCOc1ccc(-c2ccc(C(=O)NS(=O)(=O)c3cccc(N)n3)c(Oc3c(C)cc(C)cc3C)n2)cc1 [Compound 996, N-[(6-amino-2-pyridyl)sulfonyl]-6-(4-propoxyphenyl)-2-(2,4,6-trimethylphenoxy)pyridine-3-carboxamide]
  EC30: +++ (“+++” means <3 uM)

## CC(C)COc1cc(F)cc(-c2ccc(C(=O)NS(=O)(=O)c3ccn[nH]3)c(N3CCC(C)C3(C)C)n2)c1 (centres unmarked) [Compound 997, 6-(3-fluoro-5-isobutoxy-phenyl)-N-(1H-pyrazol-5-ylsulfonyl)-2-(2,2,3-trimethylpyrrolidin-1-yl)pyridine-3-carboxamide]
  EC30: ++ (“++” means between 3 uM and 10 uM)

## CC(CO)Oc1ccc(-c2ccc(C(=O)NS(=O)(=O)c3cccc(N)n3)c(N3[C@H](C)CC[C@@H]3C)n2)cn1 (stereo partly drawn) [Compound 998, N-[(6-amino-2-pyridyl)sulfonyl]-2-[(2S,5R)-2,5-dimethylpyrrolidin-1-yl]-6-[6-(2-hydroxy-1-methyl-ethoxy)-3-pyridyl]pyridine-3-carboxamide]
  EC30: ++ (“++” means between 3 uM and 10 uM)

## CCCOc1ccc(-c2ccc(C(=O)NS(=O)(=O)c3ccc[nH]c3=O)c(Oc3c(C)cc(C)cc3C)n2)cc1Cl [Compound 999, 6-(3-chloro-4-propoxy-phenyl)-N-[(2-oxo-1H-pyridin-3-yl)sulfonyl]-2-(2,4,6-trimethylphenoxy)pyridine-3-carboxamide]
  EC30: ++ (“++” means between 3 uM and 10 uM)

## Cc1cc(C)c(Oc2nc(-c3ccc(C)c(F)c3)ccc2C(=O)NS(=O)(=O)c2cccc(N)n2)c(C)c1 [Compound 1000, N-[(6-amino-2-pyridyl)sulfonyl]-6-(3-fluoro-4-methyl-phenyl)-2-(2,4,6-trimethylphenoxy)pyridine-3-carboxamide]
  EC30: +++ (“+++” means <3 uM)

## CC(C)Oc1cc(-c2ccc(C(=O)NS(=O)(=O)c3ccc[nH]c3=O)c(N3[C@H](C)CC[C@@H]3C)n2)ccc1Cl [Compound 1001, 6-(4-chloro-3-isopropoxy-phenyl)-2-[(2S,5R)-2,5-dimethylpyrrolidin-1-yl]-N-[(2-oxo-1H-pyridin-3-yl)sulfonyl]pyridine-3-carboxamide]
  EC30: ++ (“++” means between 3 uM and 10 uM)

## Cc1cc(C)c(Oc2nc(-c3ccc(C(C)C)cc3)ccc2C(=O)NS(=O)(=O)c2ccc[nH]c2=O)c(C)c1 [Compound 1002, 6-(4-isopropylphenyl)-N-[(2-oxo-1H-pyridin-3-yl)sulfonyl]-2-(2,4,6-trimethylphenoxy)pyridine-3-carboxamide]
  EC30: +++ (“+++” means <3 uM)

## CC(C)COc1cc(F)cc(-c2ccc(C(=O)NS(=O)(=O)c3cccc(N)n3)c(N3CCCCC3(C)C)n2)c1 [Compound 1004, N-[(6-amino-2-pyridyl)sulfonyl]-2-(2,2-dimethyl-1-piperidyl)-6-(3-fluoro-5-isobutoxy-phenyl)pyridine-3-carboxamide]
  EC30: +++ (“+++” means <3 uM)

## CC(C)COc1cc(F)cc(-c2ccc(C(=O)NS(=O)(=O)c3ccn[nH]3)c(N3CCCC(C)(C)C3)n2)c1 [Compound 1005, 2-(3,3-dimethyl-1-piperidyl)-6-(3-fluoro-5-isobutoxy-phenyl)-N-(1H-pyrazol-5-ylsulfonyl)pyridine-3-carboxamide]
  EC30: +++ (“+++” means <3 uM)

## CC(C)COc1cc(F)cc(-c2ccc(C(=O)NS(=O)(=O)c3ccn[nH]3)c(N3CCC(F)(F)CC3)n2)c1 [Compound 1006, 2-(4,4-difluoro-1-piperidyl)-6-(3-fluoro-5-isobutoxy-phenyl)-N-(1H-pyrazol-5-ylsulfonyl)pyridine-3-carboxamide]
  EC30: +++ (“+++” means <3 uM)

## Cc1cc(C)c(Oc2nc(-c3ccc(OCC4CC4)cc3)ccc2C(=O)NS(=O)(=O)c2ccc[nH]c2=O)c(C)c1 [Compound 1007, 6-[4-(cyclopropylmethoxy)phenyl]-N-[(2-oxo-1H-pyridin-3-yl)sulfonyl]-2-(2,4,6-trimethylphenoxy)pyridine-3-carboxamide]
  EC30: +++ (“+++” means <3 uM)

## CC1CCCN(c2nc(C(C)(C)C)ccc2C(=O)NS(=O)(=O)c2cccc(N)n2)C1 (centres unmarked) [Compound 1008, N-[(6-amino-2-pyridyl)sulfonyl]-6-tert-butyl-2-(3-methyl-1-piperidyl)pyridine-3-carboxamide]
  EC30: +++ (“+++” means <3 uM)

## CC(C)COc1cc(F)cc(-c2ccc(C(=O)NS(=O)(=O)c3cccc(N)n3)c(N(C)CC3(C)CC3)n2)c1 [Compound 1009, N-[(6-amino-2-pyridyl)sulfonyl]-6-(3-fluoro-5-isobutoxy-phenyl)-2-[methyl-[(1-methylcyclopropyl)methyl]amino]pyridine-3-carboxamide]
  EC30: +++ (“+++” means <3 uM)

## CC(C)COc1cc(F)cc(-c2ccc(C(=O)NS(=O)(=O)c3cccc(N)n3)c(N(C)CC3CC3)n2)c1 [Compound 1010, N-[(6-amino-2-pyridyl)sulfonyl]-2-[cyclopropylmethyl(methyl)amino]-6-(3-fluoro-5-isobutoxy-phenyl)pyridine-3-carboxamide]
  EC30: +++ (“+++” means <3 uM)

## CC(C)COc1cccc(-c2ccc(C(=O)NS(=O)(=O)c3cccc(N)n3)c(N3CCCC3(C)C)n2)n1 [Compound 1011, N-[(6-amino-2-pyridyl)sulfonyl]-2-(2,2-dimethylpyrrolidin-1-yl)-6-(6-isobutoxy-2-pyridyl)pyridine-3-carboxamide]
  EC30: +++ (“+++” means <3 uM)

## CC(C)Oc1ccc(-c2ccc(C(=O)NS(=O)(=O)c3cccc(N)n3)c(N3CCC(OCc4ccccc4)CC3)n2)cn1 [Compound 1012, N-[(6-amino-2-pyridyl)sulfonyl]-2-(4-benzyloxy-1-piperidyl)-6-(6-isopropoxy-3-pyridyl)pyridine-3-carboxamide]
  EC30: +++ (“+++” means <3 uM)

## CC(C)COc1cc(F)cc(-c2ccc(C(=O)NS(=O)(=O)c3cccc(N)n3)c(N3CC(C)CC(C)C3)n2)c1 (centres unmarked) [Compound 1013, N-[(6-amino-2-pyridyl)sulfonyl]-2-(3,5-dimethyl-1-piperidyl)-6-(3-fluoro-5-isobutoxy-phenyl)pyridine-3-carboxamide]
  EC30: +++ (“+++” means <3 uM)

## CC(C)COc1cc(F)cc(-c2ccc(C(=O)NS(=O)(=O)c3cccc(N)c3)c(N3CCC(C)(C)CC3)n2)c1 [Compound 1014, N-(3-aminophenyl)sulfonyl-2-(4,4-dimethyl-1-piperidyl)-6-(3-fluoro-5-isobutoxy-phenyl)pyridine-3-carboxamide]
  EC30: +++ (“+++” means <3 uM)

## Cc1ccc(-c2ccc(C(=O)NS(=O)(=O)c3cccc(N)n3)c(Oc3ccc(C)cc3C)n2)cc1 [Compound 1015, N-[(6-amino-2-pyridyl)sulfonyl]-2-(2,4-dimethylphenoxy)-6-(p-tolyl)pyridine-3-carboxamide]
  EC30: +++ (“+++” means <3 uM)

## Cc1cc(C)c(Oc2nc(-c3cccc(C(C)C)c3)ccc2C(=O)NS(=O)(=O)c2cccc(N)n2)c(C)c1 [Compound 1016, N-[(6-amino-2-pyridyl)sulfonyl]-6-(3-isopropylphenyl)-2-(2,4,6-trimethylphenoxy)pyridine-3-carboxamide]
  EC30: +++ (“+++” means <3 uM)

## CC(C)COc1ccc(-c2ccc(C(=O)NS(=O)(=O)c3ccc[nH]c3=O)c(N3CCC(C)CC3)n2)cc1 [Compound 1017, 6-(4-isobutoxyphenyl)-2-(4-methyl-1-piperidyl)-N-[(2-oxo-1H-pyridin-3-yl)sulfonyl]pyridine-3-carboxamide]
  EC30: ++ (“++” means between 3 uM and 10 uM)

## Cc1cc(C)c(Oc2nc(C)ccc2C(=O)NS(=O)(=O)c2cccc(N3CCN(C)CC3)n2)c(C)c1 [Compound 1018, 6-methyl-N-[[6-(4-methylpiperazin-1-yl)-2-pyridyl]sulfonyl]-2-(2,4,6-trimethylphenoxy)pyridine-3-carboxamide]
  EC30: ++ (“++” means between 3 uM and 10 uM)

## CCOc1ccc(-c2ccc(C(=O)NS(=O)(=O)c3nccnc3N)c(Oc3c(C)cc(C)cc3C)n2)cc1 [Compound 1019, N-(3-aminopyrazin-2-yl)sulfonyl-6-(4-ethoxyphenyl)-2-(2,4,6-trimethylphenoxy)pyridine-3-carboxamide]
  EC30: +++ (“+++” means <3 uM)

## CC1CN(c2nc(-c3ccc(OC(C)C)cc3)ccc2C(=O)NS(=O)(=O)c2cccc(N)n2)C(C)(C)C1 (centres unmarked) [Compound 1020, N-[(6-amino-2-pyridyl)sulfonyl]-6-(4-isopropoxyphenyl)-2-(2,2,4-trimethylpyrrolidin-1-yl)pyridine-3-carboxamide]
  EC30: +++ (“+++” means <3 uM)

## CC(C)COc1cc(-c2ccc(C(=O)NS(=O)(=O)c3cccc(N)n3)c(N3CC(C)CC3(C)C)n2)ccc1Cl (centres unmarked) [Compound 1021, N-[(6-amino-2-pyridyl)sulfonyl]-6-(4-chloro-3-isobutoxy-phenyl)-2-(2,2,4-trimethylpyrrolidin-1-yl)pyridine-3-carboxamide]
  EC30: +++ (“+++” means <3 uM)

## CCCOc1ccc(-c2ccc(C(=O)NS(=O)(=O)c3ccc[nH]c3=O)c(Oc3c(C)cc(C)cc3C)n2)cc1F [Compound 1022, 6-(3-fluoro-4-propoxy-phenyl)-N-[(2-oxo-1H-pyridin-3-yl)sulfonyl]-2-(2,4,6-trimethylphenoxy)pyridine-3-carboxamide]
  EC30: ++ (“++” means between 3 uM and 10 uM)

## CCC1CCCN(c2nc(-c3ccc(OC(C)C)nc3)ccc2C(=O)NS(=O)(=O)c2cccc(N)n2)C1 (centres unmarked) [Compound 1023, N-[(6-amino-2-pyridyl)sulfonyl]-2-(3-ethyl-1-piperidyl)-6-(6-isopropoxy-3-pyridyl)pyridine-3-carboxamide]
  EC30: +++ (“+++” means <3 uM)
